For one experiment, the target named is T1, BTK (Homo sapiens, UniProt Q06187).
T1 construct: High control=Cell group with added DMSO and without compound, indicating microplate readings without BTK degradation; endogenous in cells; host or cells: TMD-8
Kind of experiment: BTK degradation in TMD-8 cells (HTRF assay). Format: cell-based. The settings on record: 6 h treatment, IC50 (DC50) of BTK degradation. In a few lines: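 TMD-8 cells were exposed for 6 h to 8 compound doses (6-fold serial dilution, 0.2% DMSO). Lysed cells were incubated overnight at room temperature with HTRF antibodies and read at 665/620 nm. DC50 came from four-parameter fitting of % inhibition versus concentration.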

The next experiment concerns HEK-293 cells. Briefly: HEK-293 cytotoxicity detection (CellTiter-Glo). Format: cell-based. The following applies: Homo sapiens; HEK-293 cells, 72 h incubation, CellTiter-Glo luminescence, IC50 of cell proliferation inhibition; read-out: HEK293. The gist of the method: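 HEK-293 cells exposed 72 h to an 8-point, 4-fold dilution series (top 500× stock 5 mM in DMSO; 0.2% DMSO final). Viability by CellTiter-Glo luminescence after 10 min at room temperature; IC50 from four-parameter Hill fit of percent inhibition.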

pIC50: −log10 of the molar value.

T1 sequence (Q06187 whole entry): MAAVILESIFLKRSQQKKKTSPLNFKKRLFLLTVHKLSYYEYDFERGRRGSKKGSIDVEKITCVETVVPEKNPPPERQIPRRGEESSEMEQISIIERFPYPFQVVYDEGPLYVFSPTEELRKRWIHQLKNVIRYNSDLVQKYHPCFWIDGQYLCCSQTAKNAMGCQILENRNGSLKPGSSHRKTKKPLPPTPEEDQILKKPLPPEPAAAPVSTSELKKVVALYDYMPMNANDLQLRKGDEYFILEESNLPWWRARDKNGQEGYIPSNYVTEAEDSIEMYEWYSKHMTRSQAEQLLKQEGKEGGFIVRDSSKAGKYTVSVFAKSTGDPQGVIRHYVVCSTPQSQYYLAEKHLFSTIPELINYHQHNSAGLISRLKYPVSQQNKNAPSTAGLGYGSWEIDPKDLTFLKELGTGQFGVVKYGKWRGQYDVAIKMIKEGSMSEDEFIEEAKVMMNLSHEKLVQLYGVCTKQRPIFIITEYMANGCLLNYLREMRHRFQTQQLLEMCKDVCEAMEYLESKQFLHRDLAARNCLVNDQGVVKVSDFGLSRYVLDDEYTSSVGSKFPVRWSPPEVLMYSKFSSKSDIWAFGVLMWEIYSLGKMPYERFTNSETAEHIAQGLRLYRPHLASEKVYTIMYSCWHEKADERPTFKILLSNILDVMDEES

Usually DC50 stands for the midpoint of the concentration-degradation curve. On to `COc1cc2c(cc1N1CCN(C3CC(c4ccc([C@@H]5CCC(=O)NC5=O)cc4)C3)CC1)[nH]c1ncnc(-c3ccc([C@@H](C)NC(=O)c4nc(C(C)(C)C)no4)c(C)c3)c12` (stereo partly drawn) [Example 49, 3-(tert-butyl)-N—((R)-1-(4-(7-(4-(3-(4-((S)-2,6-dioxopiperidin-3-yl)phenyl)cyclobutyl)piperazin-1-yl)-6-methoxy-9H-pyrimido[4,5-b]indol-4-yl)-2-methylphenyl)ethyl)-1,2,4-oxadiazole-5-carboxamide], for which the DC50 on BTK is 1.08 nM. Moreover, in the experiment on HEK-293 cells, the pIC50 was less than 5.00.
`COc1cc2c(cc1N1CCN(Cc3ccc4c(c3)n(C)c(=O)n4C3CCC(=O)NC3=O)CC1)[nH]c1ncnc(-c3ccc([C@@H](C)NC(=O)c4nc(C(C)(C)C)no4)c(C)c3)c12` (stereo partly drawn) [Example 69, 3-(tert-butyl)-N-((1R)-1-(4-(7-(4-((1-(2,6-dioxopiperidin-3-yl)-3-methyl-2-oxo-2,3-dihydro-1H-benzo[d]imidazol-5-yl)methyl)piperazin-1-yl)-6-methoxy-9H-pyrimido[4,5-b]indol-4-yl)-2-methylphenyl)ethyl)-1,2,4-oxadiazole-5-carboxamide]: the DC50 on BTK was determined as 0.266 nM. Also, the pIC50 in the experiment on HEK-293 cells is less than 5.00.
Take `Cc1cc(-c2ncnc3[nH]c4cc(N5CCN(CC6CCN(c7ccc(N8CCC(=O)NC8=O)c(C)c7)CC6)CC5)ccc4c23)c(F)cc1[C@@H](C)NC(=O)c1noc(C(C)(C)C)n1` [Example 24, (R)-5-(tert-butyl)-N-(1-(4-(7-(4-((1-(4-(2,4-dioxotetrahydropyrimidin-1(2H)-yl)-3-methylphenyl)piperidin-4-yl)methyl)piperazin-1-yl)-9H-pyrimido[4,5-b]indol-4-yl)-5-fluoro-2-methylphenyl)ethyl)-1,2,4-oxadiazole-3-carboxamide]: on BTK, the DC50 was found to be 0.47 nM. The pIC50 in the experiment on HEK-293 cells is less than 5.00.
Consider `COc1cc2c(cc1N1CCN(CCc3ccc(C4(C)CCC(=O)NC4=O)cc3)CC1)[nH]c1ncnc(-c3ccc([C@@H](C)NC(=O)c4nc(C(C)(C)C)no4)c(C)c3)c12` (stereo partly drawn) [Example 92, 3-(tert-butyl)-N-((1R)-1-(4-(6-methoxy-7-(4-(4-(3-methyl-2,6-dioxopiperidin-3-yl)phenethyl)piperazin-1-yl)-9H-pyrimido[4,5-b]indol-4-yl)-2-methylphenyl)ethyl)-1,2,4-oxadiazole-5-carboxamide], for which, at BTK, the DC50 was 3.08 nM. In the experiment on HEK-293 cells, the pIC50 was less than 5.00.
For `Cc1cc(-c2ncnc3[nH]c4cc(CN5CCN(CC6CCN(c7ccc(N8CCC(=O)NC8=O)cc7)CC6)CC5)ccc4c23)ccc1[C@@H](C)NC(=O)c1nc(C(C)(C)C)no1` [Example 104, (R)-3-(tert-butyl)-N-(1-(4-(7-((4-((1-(4-(2,4-dioxotetrahydropyrimidin-1(2H)-yl)phenyl)piperidin-4-yl)methyl)piperazin-1-yl)methyl)-9H-pyrimido[4,5-b]indol-4-yl)-2-methylphenyl)ethyl)-1,2,4-oxadiazole-5-carboxamide], in that order: 1.16 nM and less than 5.00.
The compound `COc1cc2c(cc1N1CCN(Cc3ccc4c(c3)n(C)c(=O)n4C3CCC(=O)NC3=O)CC1)[nH]c1ncnc(-c3ccc([C@@H](C)NC(=O)c4nc(C(C)(C)C)no4)c(C)c3F)c12` (stereo partly drawn) [Example 71, 3-(tert-butyl)-N-((1R)-1-(4-(7-(4-((1-(2,6-dioxopiperidin-3-yl)-3-methyl-2-oxo-2,3-dihydro-1H-benzo[d]imidazol-5-yl)methyl)piperazin-1-yl)-6-methoxy-9H-pyrimido[4,5-b]indol-4-yl)-3-fluoro-2-methylphenyl)ethyl)-1,2,4-oxadiazole-5-carboxamide] yielded a DC50 at BTK of 9.24 nM. Also, the pIC50 with HEK-293 cells is less than 5.00.
The compound `Cc1c([C@@H](C)NC(=O)c2noc(C(C)(C)C)n2)ccc(-c2ncnc3[nH]c4cc(N5CCN(CCc6ccc(SC7CCC(=O)NC7=O)cc6)CC5)ccc4c23)c1F` (stereo partly drawn) [Example 80, 5-(tert-butyl)-N-((1R)-1-(4-(7-(4-(4-((2,6-dioxopiperidin-3-yl)thio)phenethyl)piperazin-1-yl)-9H-pyrimido[4,5-b]indol-4-yl)-3-fluoro-2-methylphenyl)ethyl)-1,2,4-oxadiazole-3-carboxamide] gave a DC50 at BTK of 16.6 nM. Moreover, in the experiment with HEK-293 cells, the pIC50 is less than 5.00.
On the same counts, the results for `Cc1cc(-c2ncnc3[nH]c4cc(N5CCN(Cc6ccc7c(c6)N(C6CCC(=O)NC6=O)C(=O)C76CC6)CC5)ccc4c23)c(F)cc1[C@@H](C)NC(=O)c1noc(C(C)(C)C)n1` (stereo partly drawn) [Example 91, 5-(tert-butyl)-N-((1R)-1-(4-(7-(4-((1′-(2,6-dioxopiperidin-3-yl)-2′-oxospiro[cyclopropane-1,3′-indolin]-6′-yl)methyl)piperazin-1-yl)-9H-pyrimido[4,5-b]indol-4-yl)-5-fluoro-2-methylphenyl)ethyl)-1,2,4-oxadiazole-3-carboxamide] are more than 2000 nM and less than 5.00.
